For one assay, the system named is diabetic rat model. Put plainly: Evaluation tests for lowering glycated hemoglobin (HbA1c) and blood lipid in diabetic rats (high-lipid emulsion + streptozotocin). The class given is in vivo, Sprague-Dawley (SD) rats. The settings on record: positive control group, metformin hydrochloride solution, intragastric once per day for 8 weeks. On the procedure: Evaluation tests for lowering glycated hemoglobin (HbA1c) were described below.
Healthy male Sprague-Dawley (SD) rats with a body weight of 185-225 g were selected and fed adaptively for one week. After adaptive feeding, the SD rats were randomly divided into six groups each for 20 rats. One of the six groups was selected as a blank control group, and fed with ordinary feed. The rest five groups were subjected to intragastric administration with high-lipid emulsion for 10 mL/kg per day for 1 month. After the last feeding, rats were fasted for 12 h expect for water. The rats fed with high-lipid emulsion were subjected to disposable intraperitoneal injection with streptozotocin STZ solution for 25 mg/kg to establish a diabetic rat model. After streptozotocin injection for 72 h, the rats were fasted for 12 h expect for water and was taken blood samples from the tail to detect fasting blood sugar. The rat with a fasting blood glucose>10.0 mmol/L was considered as a successful model. The blank control group was intraperitoneally injected with citric acid-sodium citrate buffer solution.
The rats that were successfully modeled were randomly divided into model group, positive control group, low-dose group, medium-dose group and high-dose group according to blood sugar and body weight, with 20 rats in each group. […]

The next assay has as its system diabetic animal model. Put plainly: Evaluation tests for lowering blood sugar (urine sugar, fasting blood sugar) in streptozotocin rats. In kind it is in vivo. The settings on record: positive control group, metformin hydrochloride solution, intragastric once per day for 15 days. Here is the method:
Evaluation tests for lowering blood sugar were described below.
100 of healthy male rats were selected, numbered and fed adaptively in normal environment for 2 weeks, and free to eat and drink.
After adaptive feeding, the rats were randomly divided into 5 groups with 20 rats in each group. Only one group was selected as the blank control group, the rest groups were subjected to disposable intraperitoneal injection with 5% streptozotocin STZ solution for 200 mg/kg. If there were coma among those rats within 2 h, glucose sugar solution was fed until awake. Two days later, the fasting blood sugar was detected. The rat with a blood sugar of more than 10 was selected as a diabetic animal model.
The rats that were successfully modeled were randomly divided into model group, positive control group, low-dose group, medium-dose group and high-dose group according to blood sugar and body weight, with 20 rats in each group. The polysaccharide-peptide composites prepared in Examples 1-3 were diluted with water into intragastric solutions, which were fed to the low-dose group for 1.0 g/kg, the medium-dose group for 2.0 g/kg and the high-dose group for 3.0 g/kg, respectively. […]
During the experiment, rats of each group were […] every day for 15 consecutive days. […] At the end of the experiment, the final blood sugar content was recorded.

Another assay deals with high-lipid model rats. The experiment in a line: Evaluation tests for lowering blood lipid (TC, TG) in rats given high lipid diet. The class given is in vivo. Particulars: positive control group, simvastatin solution 50 mg/kg bw d, intragastric. An excerpt: Evaluation tests for lowering blood lipid were described below. 60 of healthy male rats were selected, numbered and fed adaptively in normal environment for 2 weeks, and free to eat and drink. After the adaptive feeding, the rats were randomly divided into 6 groups with 10 rats in each group, consisting of a blank control group, a high-lipid model group, a positive treatment group, a high-dose group, a medium-dose group and a low-dose group. Except the blank control group, the other groups were given high lipid diet. The polysaccharide-peptide composites prepared in this application and simvastatin were respectively diluted. The positive control group was given simvastatin solution by intragastric administration for 50 mg/kg bw d, and the high, medium and low-dose groups were given polysaccharide-peptide solutions for 100 mg/kg bw d, 50 mg/kg bw d and 25 mg/kg bw d, respectively. Other groups were intragastric with corresponding volume of distilled water. The treatment period lasted for 4 weeks.

Counter-ions that a name gives are not always drawn.

`CN(C)C(=N)N=C(N)N` [metformin hydrochloride]: the “Content of blood lipid” value in the assay with diabetic rat model (model group 3.29 ± 0.58) was found to be 2.52 ± 0.24 mmol/L. Further, in the assay with diabetic rat model (model group 50.78 ± 3.76), the “Content of HbA1c” value came out at 35.14 ± 1.25 ng/mL. Besides, the “Content of urine sugar” value in the assay on diabetic animal model (model group 1.74 ± 0.56) was 1.44 ± 0.23 mmol/L. Also, in the assay with diabetic animal model (model group 14.86 ± 2.38), the “Content of fasting blood sugar” value worked out at 8.55 ± 1.37 mmol/L.
`CCC(C)(C)C(=O)O[C@H]1C[C@@H](C)C=C2C=C[C@H](C)[C@H](CC[C@@H]3C[C@@H](O)CC(=O)O3)[C@H]21` [simvastatin]: the “Content of TG” value in the assay on high-lipid model rats (model group 0.57 ± 0.18) was 0.32 ± 0.14 mmol/L. The “Content of TC” value with high-lipid model rats (model group 3.41 ± 0.58) worked out at 2.59 ± 0.24 mmol/L.
